pEC50, pIC50, pKi: −log10 of the molar value.
What was measured:
Adenosine receptor A1 [1] = molecular target: T1, Adenosine receptor A1 (Homo sapiens, UniProt P30542); test: Displacement of [3H]NECA from human recombinant adenosine A1 receptor expressed in CHO cells after 60 mins by liquid scintillation counting; type: cell-based
T1 sequence (P30542 whole entry): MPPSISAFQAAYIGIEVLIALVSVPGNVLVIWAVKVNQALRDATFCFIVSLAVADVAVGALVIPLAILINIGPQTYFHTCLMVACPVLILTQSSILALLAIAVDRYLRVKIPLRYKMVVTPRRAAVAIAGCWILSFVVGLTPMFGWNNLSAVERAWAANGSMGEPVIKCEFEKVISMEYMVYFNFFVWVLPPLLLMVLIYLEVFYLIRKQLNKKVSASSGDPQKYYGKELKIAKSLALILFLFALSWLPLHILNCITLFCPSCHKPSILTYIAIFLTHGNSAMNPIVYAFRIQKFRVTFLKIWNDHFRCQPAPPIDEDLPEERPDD

Adenosine receptor A2a [2] = molecular target: T2, Adenosine receptor A2a (Homo sapiens, UniProt P29274); test: Displacement of [3H]CGS21680 from human adenosine A2A receptor expressed in HEK293 cells after 60 mins by liquid scintillation counting; type: cell-based
T2 sequence (P29274 whole entry): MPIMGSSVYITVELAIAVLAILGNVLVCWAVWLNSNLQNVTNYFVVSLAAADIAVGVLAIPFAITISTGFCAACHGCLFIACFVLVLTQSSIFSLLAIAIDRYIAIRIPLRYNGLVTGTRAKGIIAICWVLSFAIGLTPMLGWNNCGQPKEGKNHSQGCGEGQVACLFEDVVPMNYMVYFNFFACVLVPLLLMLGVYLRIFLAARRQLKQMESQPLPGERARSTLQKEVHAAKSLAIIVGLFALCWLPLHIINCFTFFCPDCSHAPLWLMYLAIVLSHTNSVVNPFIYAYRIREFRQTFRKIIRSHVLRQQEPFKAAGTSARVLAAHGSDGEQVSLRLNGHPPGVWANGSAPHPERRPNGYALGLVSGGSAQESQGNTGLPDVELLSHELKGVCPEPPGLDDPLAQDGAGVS

[3] = molecular target: T3, Adenosine receptor A3 (Homo sapiens) (UniProt P0DMS8); test: Agonist activity at human recombinant adenosine A3 receptor expressed in CHO cells assessed as inhibition of forskolin-stimulated cAMP production at 10 uM treated 45 mins before forskolin challenge measured after 15 mins by radioimmunoassay relative to NECA; type: functional, cell-based
T3 sequence (whole entry): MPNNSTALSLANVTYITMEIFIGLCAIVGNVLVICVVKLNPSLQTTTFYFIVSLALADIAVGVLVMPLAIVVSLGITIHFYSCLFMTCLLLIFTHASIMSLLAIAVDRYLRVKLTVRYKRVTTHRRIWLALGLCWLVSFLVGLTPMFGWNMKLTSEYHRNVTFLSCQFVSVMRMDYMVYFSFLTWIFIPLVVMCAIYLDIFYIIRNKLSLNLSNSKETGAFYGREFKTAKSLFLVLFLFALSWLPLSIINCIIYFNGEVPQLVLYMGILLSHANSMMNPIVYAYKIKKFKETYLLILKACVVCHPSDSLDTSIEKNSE

Adenosine receptor A3 [4] = molecular target: T4, Adenosine receptor A3 (Rattus norvegicus, UniProt P28647); test: Binding affinity to rat adenosine A3 receptor expressed in CHO cells; type: cell-based
T4 sequence (P28647 whole entry): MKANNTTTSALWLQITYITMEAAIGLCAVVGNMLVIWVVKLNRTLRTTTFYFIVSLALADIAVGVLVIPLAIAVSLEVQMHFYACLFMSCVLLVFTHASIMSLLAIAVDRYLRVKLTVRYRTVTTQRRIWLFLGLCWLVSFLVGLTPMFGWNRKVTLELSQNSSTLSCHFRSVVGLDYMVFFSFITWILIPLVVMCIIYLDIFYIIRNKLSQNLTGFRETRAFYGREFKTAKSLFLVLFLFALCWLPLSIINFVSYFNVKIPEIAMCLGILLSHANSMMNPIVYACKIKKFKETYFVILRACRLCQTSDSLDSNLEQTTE

Adenosine receptor A3 [5] = molecular target: T5, Adenosine receptor A3 (Homo sapiens, UniProt P0DMS8); test: Displacement of [125I]AB-MECA from human recombinant adenosine A3 receptor expressed in CHO cells after 60 mins by gamma counting
T5 sequence (P0DMS8 whole entry): T3 sequence (whole entry)

Homo sapiens = species: Homo sapiens; test: Selectivity for human recombinant adenosine A3 receptor over human recombinant adenosine A2A receptor
[6] = molecular target: T6, Adenosine receptor A1 (Homo sapiens) (UniProt P30542); test: Inhibition of [3H]NECA binding to human recombinant adenosine A1 receptor expressed in CHO cells at 10 uM after 60 mins by liquid scintillation counting; type: cell-based
T6 sequence (whole entry): T1 sequence (P30542 whole entry)

[7] = molecular target: Adenosine receptors; A1 & A3 (Homo sapiens) (UniProt P30542+P0DMS8); test: Selectivity for human recombinant adenosine A3 receptor over human recombinant adenosine A1 receptor
Adenosine receptor A2a [8] = molecular target: T2, Adenosine receptor A2a; test: Inhibition of [3H]CGS21680 binding to human adenosine A2A receptor expressed in HEK293 cells at 10 uM after 60 mins by liquid scintillation counting; type: cell-based
[9] = molecular target: T6, Adenosine receptor A1 (Homo sapiens); test: Inhibition of [3H]CCPA binding to human recombinant adenosine A1 receptor expressed in CHO cells at 10 uM after 60 mins by liquid scintillation counting; type: cell-based
[10] = molecular target: T3, Adenosine receptor A3 (Homo sapiens); conditions: CHO, 10 uM
Description: Inhibition of [125I]AB-MECA binding to human recombinant adenosine A3 receptor expressed in CHO cells at 10 uM after 60 mins by liquid scintillation counting

Adenosine receptor A1 [11] = molecular target: T1, Adenosine receptor A1; test: Displacement of [3H]CCPA from human recombinant adenosine A1 receptor expressed in CHO cells after 60 mins by liquid scintillation counting; type: cell-based
Adenosine receptor A3 [12] = molecular target: T5, Adenosine receptor A3; test: Agonist activity at human recombinant adenosine A3 receptor expressed in CHO cells assessed as inhibition of forskolin-stimulated cAMP production treated 45 mins before forskolin challenge measured after 15 mins by radioimmunoassay relative to NECA; type: functional, cell-based

Row | SMILES | pKi (Adenosine receptor A2a [2]) | Efficacy [3] [%] | pKi (Adenosine receptor A3 [5]) | inhibition [6] [%] | inhibition (Adenosine receptor A2a [8]) [%] | also measured
1 | O[C@@H]1[C@H](O)[C@@H]2C[C@@H]2[C@H]1n1cnc2c(NCc3cccc(Cl)c3)ncnc21 | 5.34 | 58.3 | 8.31 | – | – | pKi (Adenosine receptor A1 [1]): 5.80; pKi (Adenosine receptor A3 [4]): 7.69
2 | CNC(=O)[C@]12C[C@@H]1[C@@H](n1cnc3c(NC4CCCC4)nc(Cl)nc31)[C@H](O)[C@@H]2O | – | 101 | – | – | – | –
3 | CNC(=O)[C@]12C[C@@H]1[C@@H](n1cnc3c(NCc4cccc(Cl)c4)nc(C#CCCC(=O)NCCCCN)nc31)[C@H](O)[C@@H]2O | 6.12 | 102 | 8.68 | 30 | – | fold change (FC) (Homo sapiens): > 5000; pKi (Adenosine receptor A3 [4]): 8.06; fold change (FC) [7]: 360
4 | CNC(=O)[C@]12C[C@@H]1[C@@H](n1cnc3c(NCc4cccc(Cl)c4)nc(C#CCCC(=O)NCCN)nc31)[C@H](O)[C@@H]2O | 6.26 | 96.9 | 8.60 | – | – | pKi (Adenosine receptor A1 [1]): 5.63
5 | CNC(=O)[C@]12C[C@@H]1[C@@H](n1cnc3c(NCc4cccc(Cl)c4)nc(C#CCCC(=O)O)nc31)[C@H](O)[C@@H]2O | – | 106 | 7.21 | 17 | 24 | –
6 | O[C@@H]1[C@H](O)[C@@H]2C[C@@H]2[C@H]1n1cnc2c(NCc3cccc(I)c3)ncnc21 | – | 80.8 | – | – | – | pKi (Adenosine receptor A1 [1]): 6.08
7 | CNC(=O)[C@]12C[C@H]1[C@@H](n1cnc3c(NCc4cccc(Cl)c4)nc(C#CCCC(=O)NCCN)nc31)[C@@H](O)[C@H]2O | – | 25.6 | – | – | 8 | inhibition [9]: 33%; inhibition [10]: 30%
8 | NCCNC(=O)CCC#Cc1nc(NCc2cccc(Cl)c2)c2ncn([C@H]3[C@H](O)[C@H](O)[C@@H]4C[C@@H]43)c2n1 | – | 0.9 | 6.39 | 15 | 35 | fold change (FC) (Homo sapiens): > 20; fold change (FC) [7]: > 20
9 | CNC(=O)[C@]12C[C@H]1[C@@H](n1cnc3c(NCc4cccc(Cl)c4)nc(C#CCCCCC(=O)NCCN)nc31)[C@@H](O)[C@H]2O | – | 52 | 5.33 | – | 5 | inhibition [9]: 36%
10 | O[C@@H]1[C@H](O)[C@@H]2C[C@@H]2[C@H]1n1cnc2c(NC3CCCC3)nc(Cl)nc21 | 5.79 | 95.1 | 6.92 | – | – | pKi (Adenosine receptor A1 [1]): 6.96
11 | CNC(=O)[C@]12C[C@@H]1[C@@H](n1cnc3c(NCc4cccc(Cl)c4)nc(Cl)nc31)[C@H](O)[C@@H]2O | 5.64 | – | – | – | – | pKi (Adenosine receptor A1 [11]): 6.59
12 | O[C@@H]1[C@H](O)[C@@H]2C[C@@H]2[C@H]1n1cnc2c(NCc3cccc(I)c3)nc(Cl)nc21 | – | 44 | – | – | – | pEC50 (Adenosine receptor A3 [12]): 7.92
13 | CNC(=O)[C@]12C[C@@H]1[C@@H](n1cnc3c(NCc4cccc(Cl)c4)nc(C#CCCCC(=O)OC)nc31)[C@H](O)[C@@H]2O | – | – | – | – | 49 | pKi (Adenosine receptor A1 [11]): 6.32
14 | CNC(=O)[C@]12C[C@@H]1[C@@H](n1cnc3c(NCc4cccc(Cl)c4)nc(C#CCCCC(=O)NCCN)nc31)[C@H](O)[C@@H]2O | – | – | 8.66 | – | 81 | pKi (Adenosine receptor A1 [11]): 6.34
15 | CNC(=O)[C@]12C[C@@H]1[C@@H](n1cnc3c(NCc4cccc(Cl)c4)nc(C#CCCC(=O)NCCCN)nc31)[C@H](O)[C@@H]2O | 6.01 | 97.9 | 8.51 | 31 | – | –
16 | CNC(=O)[C@]12C[C@@H]1[C@@H](n1cnc3c(NCc4cccc(I)c4)ncnc31)[C@H](O)[C@@H]2O | 5.21 | 100 | 8.62 | – | – | pKi (Adenosine receptor A1 [11]): 6.15
17 | CNC(=O)[C@]12C[C@@H]1[C@@H](n1cnc3c(NCc4cccc(Cl)c4)nc(C#CCCCCC(=O)OC)nc31)[C@H](O)[C@@H]2O | 5.45 | 85 | 7.95 | 20 | – | –
18 | CNC(=O)[C@]12C[C@H]1[C@@H](n1cnc3c(NCc4cccc(Cl)c4)nc(C#CCCCC(=O)O)nc31)[C@@H](O)[C@H]2O | – | – | – | – | 9 | –
19 | CNC(=O)[C@]12C[C@@H]1[C@@H](n1cnc3c(NCc4cccc(Cl)c4)nc(C#CCCC(=O)NCCNC(=O)CCCC[C@H]4SC[C@H]5NC(=O)N[C@H]54)nc31)[C@H](O)[C@@H]2O | – | 84.5 | 7.44 | 1 | 51 | pIC50 (Adenosine receptor A3 [12]): 8.60
20 | CNC(=O)[C@]12C[C@@H]1[C@@H](n1cnc3c(NCc4cccc(Cl)c4)nc(C#CCCC(=O)OC)nc31)[C@H](O)[C@@H]2O | – | 90 | 8.26 | 41 | 43 | –
21 | CNC(=O)[C@]12C[C@@H]1[C@@H](n1cnc3c(NCc4cccc(Cl)c4)nc(C#CCCC(=O)NCCNC(=O)CCCCCNC(=O)CCCC[C@H]4SC[C@H]5NC(=O)N[C@H]54)nc31)[C@H](O)[C@@H]2O | – | 107 | 7.24 | 12 | 47 | fold change (FC) (Homo sapiens): 66; fold change (FC) [7]: > 170
22 | CNC(=O)[C@]12C[C@@H]1[C@@H](n1cnc3c(NCc4cccc(Cl)c4)nc(C#CCCCCC(=O)O)nc31)[C@H](O)[C@@H]2O | – | 74.4 | 7.91 | 11 | 38 | –
23 | CNC(=O)[C@]12C[C@@H]1[C@@H](n1cnc3c(NCc4cccc(Cl)c4)nc(C#CCCCCC(=O)NCCN)nc31)[C@H](O)[C@@H]2O | 6.56 | 100 | 8.47 | 47 | – | –
24 | CNC(=O)C12C[C@@H]1[C@@H](n1cnc3c(NCc4cccc(Cl)c4)nc(C#CCCCC(=O)O)nc31)[C@H](O)[C@@H]2O (single isomer, unassigned) | – | – | – | – | – | pKi (Adenosine receptor A3 [4]): 7.18
25 | O[C@@H]1[C@H](O)[C@@H]2C[C@@H]2[C@H]1n1cnc2c(NCc3cccc(I)c3)nc(F)nc21 | 5.40 | 19 | 7.97 | – | – | pKi (Adenosine receptor A1 [1]): 6.29
26 | CNC(=O)[C@]12C[C@@H]1[C@@H](n1cnc3c(NCc4cccc(Cl)c4)nc(C#CCCC(=O)NCCNCCN)nc31)[C@H](O)[C@@H]2O | 6.05 | 87.6 | 7.81 | 33 | – | –

Source: ChEMBL document CHEMBL1154768 (J Med Chem, 2009)
